Source: patent US20070072831A1, “Integrase inhibitor compounds” (GILEAD SCIENCES, INC., priority 2005, published 2007)
pEC50, pIC50: −log10 of the molar value. Blank lines part the entries; values can stand above or below the compound they belong to.

Experiments:
HIV-IIIb = assay: Antiviral assay in MT-4 cells infected with HIV-IIIb; type: cell-based; conditions: MT4, 120 h; MT-4 cells, HIV-IIIb, 5 days; read-out: EC50 Range MT-4
Protocol: See: Wolfe, etal J. Virol.
Antiviral Assays in MT2 and MT4 Cells
For the antiviral assay utilizing MT-2 cells, 50 μl of 2× test concentration of 5-fold serially diluted compound in culture medium with 10% FBS was added to each well of a 96-well plate (9 concentrations) in triplicate. MT-2 cells were infected with HIV-IIIb at a multiplicity of infection (m.o.i) of 0.01 for 3 hours. Fifty microliters of infected cell suspension in culture medium with 10% FBS (˜1.5×10^4 cells) was then added to each well containing 50 μl of diluted compound. The plates were then incubated at 37° C. for 5 days. For the antiviral assay utilizing MT-4 cells, 20 μl of 2× test concentration of 5-fold serially diluted compound in culture medium with 10% FBS was added to each well of a 384-well plate (7 concentrations) in triplicate. MT-4 cells were next mixed with HIV-IIIb at an m.o.i. of 0.1 and 20 μl of virus/cell mixture (˜2000 cells) was immediately added to each well containing 20 μl of diluted compound. The plates were then incubated at 37° C. for 5 days. After 5 days of incubation, 100 μl of CellTiter-Glo™ Reagent (catalog # G7571, Promega Biosciences, Inc., Madison, Wis.) was added to each well containing MT-2 cells and 40 μl to each well containing MT-4 cells. Cell lysis was carried out by incubating at room temperature for 10 min and then chemiluminescence was read.

HIV integrase = HIV integrase (Human immunodeficiency virus type 1 group M subtype B, UniProt P04585); assay: biochemical
Protocol: Representative compounds of the invention were tested for biological activity by methods including anti-HIV assay, measuring inhibition of HIV-integrase strand transfer catalysis, and cytotoxicity.
HIV Integrase Assay (IC50 Determination)
The HIV Integrase assay is carried out in Reacti-Bind High Binding Capacity Streptavidin coated plates (Pierce # 15502) in 100 μl reactions. The wells of the plate are rinsed once with PBS. Each well is then coated at room temperature for 1 h with 100 μl of 0.14 μM Donor DNA with the following sequence:
After coating, the plate was washed twice with PBS. 3′processing of the Donor DNA is started by adding 80 μl of Integrase/buffer mixture (25 mM HEPES, pH 7.3, 12.5 mM DTT, 93.75 mM NaCl, 12.5 mM MgCl2, 1.25% Glycerol, 0.3125 uM integrase) to each well. 3′processing is allowed to proceed for 30 min at 37° C., after which, 10 μl of test compound and 10 μl of 2.5 uM DIG-labeled Target DNA with the following sequence:
are added to each well to allow strand transfer to proceed for 30 min at 37° C. The plate is then washed three times with 2×SSC for 5 min and rinsed once with PBS. For detection of integrated product, 100 μl of a 1/2000 dilution of HRP-conjugated anti-DIG antibody (Pierce #31468) are added to each well and incubated for 1 hour. The plate was then washed three times for 5 min each, with 0.05% Tween-20 in PBS. For signal development and amplification, 100 μl of SuperSignal ELISA Femto Substrate (Pierce #37075) are added to each well. Chemiluminescence (in relative light units) is read immediately at 425 nm in the SPECTRAmax GEMINI Microplate Spectrophotometer using the end point mode at 5 sec per well.
For IC50 determinations, eight concentrations of test compounds in a 1/2.2 dilution series are used.

Compound: CC1c2c(c(O)c3ncccc3c2N(C)S(C)(=O)=O)C(=O)N1Cc1ccc(F)cc1 (racemic) [Compound 74, N-(7-(4-fluorobenzyl)-9-hydroxy-6-(R and S)-methyl-8-oxo-7,8-dihydro-6H-pyrrolo[3,4-g]quinolin-5-yl)-N-methylmethanesulfonamide]
pEC50 (HIV-IIIb): > 7.22
pIC50 (HIV integrase): > 7.22

Compound: C[C@H]1c2c(c(O)c3ncccc3c2N(C)S(C)(=O)=O)C(=O)N1Cc1ccc(F)cc1 (single isomer, unassigned) [Compound 75]
pEC50 (HIV-IIIb): > 7.22
pIC50 (HIV integrase): > 7.22

Compound: C[C@@H]1c2c(c(O)c3ncccc3c2N(C)S(C)(=O)=O)C(=O)N1Cc1ccc(F)cc1 (single isomer, unassigned) [Compound 76]
pEC50 (HIV-IIIb): > 7.22
pIC50 (HIV integrase): > 7.22

Compound: CN(c1c2c(c(O)c3ncccc13)C(=O)N(Cc1ccc(F)cc1)C2O)S(C)(=O)=O (single isomer, unassigned) [Compound 166, N-(7-(4-fluorobenzyl)-6,9-dihydroxy-8-oxo-7,8-dihydro-6H-pyrrolo[3,4-g]quinolin-5-yl)-N-methylmethanesulfonamide]
pEC50 (HIV-IIIb): > 7.22
pIC50 (HIV integrase): > 7.22

Compound: Nc1c2c(c(O)c3ncccc13)C(=O)N(Cc1ccc(F)cc1)C2=O [Compound 8, 5-amino-7-(4-fluorobenzyl)-9-hydroxy-6H-pyrrolo[3,4-g]quinoline-6,8(7H)-dione]
pEC50 (HIV-IIIb): < 6.00
pIC50 (HIV integrase): 6.00 to 7.22

Compound: CN(c1c2c(c(O)c3ncccc13)C(=O)N(Cc1ccc(F)cc1)C2)S(C)(=O)=O [Compound 29, N-(7-(4-fluorobenzyl)-9-hydroxy-8-oxo-7,8-dihydro-6H-pyrrolo[3,4-g]quinolin-5-yl)-N-methylmethanesulfonamide]
pEC50 (HIV-IIIb): > 7.22
pIC50 (HIV integrase): > 7.22

Compound: CN(c1c2c(c(OCOC(=O)OC3CCCC3)c3ncccc13)C(=O)N(Cc1ccc(F)cc1)C2)S(C)(=O)=O [Compound 30, (7-(4-fluorobenzyl)-5-(N-methylmethan-5-ylsulfonamido)-8-oxo-7,8-dihydro-6H-pyrrolo[3,4-g]quinolin-9-yloxy)methyl cyclopentyl carbonate]
pEC50 (HIV-IIIb): 6.00 to 7.22
pIC50 (HIV integrase): < 6.00

Compound: CN(c1c2c(c(OCOC(=O)OC3CCC3)c3ncccc13)C(=O)N(Cc1ccc(F)cc1)C2)S(C)(=O)=O [Compound 31, (7-(4-fluorobenzyl)-5-(N-methylmethan-5-ylsulfonamido)-8-oxo-7,8-dihydro-6H-pyrrolo[3,4-g]quinolin-9-yloxy)methyl cyclobutyl carbonate]
pEC50 (HIV-IIIb): > 7.22
pIC50 (HIV integrase): < 6.00

Compound: CCC(CC)OC(=O)OCOc1c2c(c(N(C)S(C)(=O)=O)c3cccnc13)CN(Cc1ccc(F)cc1)C2=O [Compound 32, (7-(4-fluorobenzyl)-5-(N-methylmethan-5-ylsulfonamido)-8-oxo-7,8-dihydro-6H-pyrrolo[3,4-g]quinolin-9-yloxy)methyl pentan-3-yl carbonate]
pEC50 (HIV-IIIb): 6.00 to 7.22
pIC50 (HIV integrase): < 6.00

Compound: CC(C)OC(=O)OCOc1c2c(c(N(C)S(C)(=O)=O)c3cccnc13)CN(Cc1ccc(F)cc1)C2=O [Compound 33, (7-(4-fluorobenzyl)-5-(N-methylmethan-5-ylsulfonamido)-8-oxo-7,8-dihydro-6H-pyrrolo[3,4-g]quinolin-9-yloxy)methyl isopropyl carbonate]
pEC50 (HIV-IIIb): > 7.22
pIC50 (HIV integrase): < 6.00

Compound: CC(C)OC(=O)Oc1c2c(c(N(C)S(C)(=O)=O)c3cccnc13)CN(Cc1ccc(F)cc1)C2=O [Compound 34, 7-(4-fluorobenzyl)-5-(N-methylmethan-5-ylsulfonamido)-8-oxo-7,8-dihydro-6H-pyrrolo[3,4-g]quinolin-9-yl isopropyl carbonate]
pEC50 (HIV-IIIb): > 7.22
pIC50 (HIV integrase): < 6.00

Compound: CN(C)S(=O)(=O)N(C)c1c2c(c(O)c3ncccc13)C(=O)N(Cc1ccc(F)cc1)C2 [Compound 38, N-(7-(4-fluorobenzyl)-9-hydroxy-8-oxo-7,8-dihydro-6H-pyrrolo[3,4-g]quinolin-5-yl)-N,N′,N′-trimethylsulfamide]
pEC50 (HIV-IIIb): > 7.22
pIC50 (HIV integrase): 6.00 to 7.22

Compound: CN(C)S(=O)(=O)Nc1c2c(c(O)c3ncccc13)C(=O)N(Cc1ccc(F)cc1)C2 [Compound 41, N-(7-(4-fluorobenzyl)-9-hydroxy-8-oxo-7,8-dihydro-6H-pyrrolo[3,4-g]quinolin-5-yl)-N′,N′-dimethylsulfamide]
pEC50 (HIV-IIIb): > 7.22
pIC50 (HIV integrase): 6.00 to 7.22

Compound: CN(C)CCCS(=O)(=O)N(C)c1c2c(c(O)c3ncccc13)C(=O)N(Cc1ccc(F)cc1)C2 [Compound 44, N-(7-(4-fluorobenzyl)-9-hydroxy-8-oxo-7,8-dihydro-6H-pyrrolo[3,4-g]quinolin-5-yl)-N-methyl-3-(dimethylamino)-propane-1-sulfonamide]
pEC50 (HIV-IIIb): > 7.22
pIC50 (HIV integrase): > 7.22

pEC50 (HIV-IIIb): > 7.22
Compound: CN(c1c2c(c(O)c3ncccc13)C(=O)N(Cc1ccc(F)cc1)C2)S(=O)(=O)CCCN1CCOCC1 [Compound 46, N-(7-(4-fluorobenzyl)-9-hydroxy-8-oxo-7,8-dihydro-6H-pyrrolo[3,4-g]quinolin-5-yl)-N-methyl-3-morpholinopropane-1-sulfonamide]

pEC50 (HIV-IIIb): > 7.22
Compound: CN(c1c2c(c(O)c3ncccc13)C(=O)N(Cc1ccc(F)cc1)C2)S(=O)(=O)CCCC#N [Compound 48, 3-cyano-N-(7-(4-fluorobenzyl)-9-hydroxy-8-oxo-7,8-dihydro-6H-pyrrolo[3,4-g]quinolin-5-yl)-N-methylpropane-1-sulfonamide]

pEC50 (HIV-IIIb): > 7.22
Compound: CN(c1c2c(c(O)c3ncccc13)C(=O)N(Cc1ccc(F)cc1)C2)S(=O)(=O)CCCn1ccnc1 [Compound 49, N-(7-(4-fluorobenzyl)-9-hydroxy-8-oxo-7,8-dihydro-6H-pyrrolo[3,4-g]quinolin-5-yl)-3-(1 H-imidazol-1-yl)-N-methylpropane-1-sulfonamide]

Compound: O=C1c2c(c(N3CCCS3(=O)=O)c3cccnc3c2O)CN1Cc1ccc(F)cc1 [Compound 52, N-(7-(4-fluorobenzyl)-9-hydroxy-8-oxo-7,8-dihydro-6H-pyrrolo[3,4-g]quinolin-5-yl)-N-2-dioxoisothiazolidine]
pEC50 (HIV-IIIb): > 7.22
pIC50 (HIV integrase): > 7.22

Compound: CC(C)S(=O)(=O)N(C)c1c2c(c(O)c3ncccc13)C(=O)N(Cc1ccc(F)cc1)C2 [Compound 54, N-(7-(4-fluorobenzyl)-9-hydroxy-8-oxo-7,8-dihydro-6H-pyrrolo[3,4-g]quinolin-5-yl)-N-methylpropane-2-sulfonamide]
pEC50 (HIV-IIIb): > 7.22
pIC50 (HIV integrase): 6.00 to 7.22

Compound: CN(c1c2c(c(O)c3ncccc13)C(=O)N(Cc1ccc(F)cc1)C2)S(=O)(=O)c1cn(C)cn1 [Compound 56, N-(7-(4-fluorobenzyl)-9-hydroxy-8-oxo-7,8-dihydro-6H-pyrrolo[3,4-g]quinolin-5-yl)-N,1-dimethyl-1 H-imidazole-4-sulfonamide]
pEC50 (HIV-IIIb): > 7.22
pIC50 (HIV integrase): > 7.22

Compound: Cc1nc(C)c(S(=O)(=O)N(C)c2c3c(c(O)c4ncccc24)C(=O)N(Cc2ccc(F)cc2)C3)s1 [Compound 58, N-(7-(4-fluorobenzyl)-9-hydroxy-8-oxo-7,8-dihydro-6H-pyrrolo[3,4-g]quinolin-5-yl)-N,2,4-trimethylthiazole-5-sulfonamide]
pEC50 (HIV-IIIb): > 7.22
pIC50 (HIV integrase): 6.00 to 7.22

Compound: CN(C)CCS(=O)(=O)N(C)c1c2c(c(O)c3ncccc13)C(=O)N(Cc1ccc(F)cc1)C2 [Compound 60, N-(7-(4-fluorobenzyl)-9-hydroxy-8-oxo-7,8-dihydro-6H-pyrrolo[3,4-g]quinolin-5-yl)-N-methyl-2-dimethylaminoethane-1-sulfonamide]
pEC50 (HIV-IIIb): > 7.22
pIC50 (HIV integrase): > 7.22

Compound: CN(C)C(=O)C(=O)N(C)c1c2c(c(O)c3ncccc13)C(=O)N(Cc1ccc(F)cc1)C2 [Compound 62, N1-(7-(4-fluorobenzyl)-9-hydroxy-8-oxo-7,8-dihydro-6H-pyrrolo[3,4-g]quinolin-5-yl)-N1,N2,N2-trimethyloxalamide]
pEC50 (HIV-IIIb): > 7.22
pIC50 (HIV integrase): 6.00 to 7.22

Compound: CC(=O)N(C)c1c2c(c(O)c3ncccc13)C(=O)N(Cc1ccc(F)cc1)C2 [Compound 64, N-(7-(4-fluorobenzyl)-9-hydroxy-8-oxo-7,8-dihydro-6H-pyrrolo[3,4-g]quinolin-5-yl)-N-methylacetamide]
pEC50 (HIV-IIIb): > 7.22
pIC50 (HIV integrase): > 7.22

Compound: CC(C)C(=O)Nc1c2c(c(O)c3ncccc13)C(=O)N(Cc1ccc(F)cc1)C2 [Compound 67, N-(7-(4-fluorobenzyl)-9-hydroxy-8-oxo-7,8-dihydro-6H-pyrrolo[3,4-g]quinolin-5-yl)isobutyramide]
pEC50 (HIV-IIIb): > 7.22
pIC50 (HIV integrase): > 7.22

Compound: CC(C)C(=O)N(C)c1c2c(c(O)c3ncccc13)C(=O)N(Cc1ccc(F)cc1)C2 [Compound 69, N-(7-(4-fluorobenzyl)-9-hydroxy-8-oxo-7,8-dihydro-6H-pyrrolo[3,4-g]quinolin-5-yl)-N-methylisobutyramide]
pEC50 (HIV-IIIb): > 7.22
pIC50 (HIV integrase): > 7.22

Compound: CN(c1c2c(c(O)c3ncccc13)C(=O)N(Cc1ccc(F)cc1)C2(C)C)S(C)(=O)=O [Compound 71, N-(7-(4-fluorobenzyl)-9-hydroxy-6,6-dimethyl-8-oxo-7,8-dihydro-6H-pyrrolo[3,4-g]quinolin-5-yl)-N-methylmethanesulfonamide]
pEC50 (HIV-IIIb): > 7.22
pIC50 (HIV integrase): 6.00 to 7.22

pEC50 (HIV-IIIb): > 7.22
Compound: CCNS(=O)(=O)N(CC)c1c2c(c(O)c3ncccc13)C(=O)N(Cc1ccc(F)cc1)C2 [Compound 232]
